≈ marks a conversion by molar mass, not a printed value. Entries after “also recorded” stand apart in the source; their conditions may differ. Where a SMILES comes first, the peptide text is derived from it. [ ]: non-standard residue; d: D form. The star is where a group is joined. Palmitoyl = CCCCCCCCCCCCCCCC(=O)*; Myristoyl = CCCCCCCCCCCCCC(=O)*; Lauroyl = CCCCCCCCCCCC(=O)*; Dab = NCC[C@H](N)C(=O)O
Legend:
[1] = system: Escherichia coli ST2-8624 O157:H7; type: cell-based; settings: LB medium, 24 h at 30°C, OD 600 nm not greater than 0.05
Protocol: (§1) Typhimurium TT622, and Yersinia enterocolitica PCM 2081. All strains were cultured in LB (lysogenic broth) medium.
(§2) The test compounds were dissolved in water. […] Data were obtained from three independent experiments.

[2] = system: Enterococcus faecalis ATCC 14506; type: cell-based; settings: LB medium, 24 h at 30°C, OD 600 nm not greater than 0.05
Protocol: as §1, §2

[3] = system: Klebsiella pneumoniae PCM 1; type: cell-based; settings: LB medium, 24 h at 30°C, OD 600 nm not greater than 0.05
Protocol: as §1, §2

[4] = system: Pseudomonas aeruginosa PAO1 PCM 499; type: cell-based; settings: LB medium, 24 h at 30°C, OD 600 nm not greater than 0.05
Protocol: as §1, §2

Horse red blood cells = type: cell-based
Protocol: (§3) Defibrinated sheep or horse blood was washed three times in PBS buffer (137 mM NaCl, 2.7 mM KCl, 8 mM Na2HPO4, 2 mM KH2PO4, pH 7.4) and diluted to obtain 2% (v/v) preparation of red blood cells (RBC). […] The experiment was performed by adding 190 µL of 2% RBC preparation to 10 µL of each of the prepared lipopeptide dilutions in the wells of a 96-well titer plate. As a positive control, Triton X-100 (2% final concentration) was used, instead of test compound preparations, and PBS buffer was used as a negative control. The samples were then incubated for 30 min at 30°C with shaking. After this time, the plate was centrifuged (1200 rpm) and 150 µL of the supernatant was transferred per well to another titration plate and the absorbance at 415 nm was measured using TECAN Sunrise plate reader. Based on the obtained results, the concentration of lipopeptides was determined at which up to 50% of hemolysis occurs in comparison with the positive control (HC50). Data were obtained from three independent experiments. The measurement results are shown in Table 3 and in the form of graphs in Figs. 7 and 8.

Sheep red blood cells = type: cell-based
Protocol: as §3

[5] = system: Staphylococcus epidermidis ATCC 12228; settings: LB medium, 24 h at 30°C, OD 600 nm not greater than 0.05
[6] = system: Staphylococcus aureus ATCC 29213; settings: LB medium, 24 h at 30°C, OD 600 nm not greater than 0.05
[7] = system: Yersinia enterocolitica PCM 2081; settings: LB medium, 24 h at 30°C, OD 600 nm not greater than 0.05
Description: All bacterial strains were obtained from the Polish Collection of Microorganisms (PCM) or the American Type Culture Collection (ATCC). Gram-positive bacteria strains: Staphylococcus aureus ATCC 29213, Staphylococcus epidermidis ATCC 12228, and Enterococcus faecalis ATCC 14506. Gram-negative bacteria strains: Escherichia coli ST2-8624 O157:H7, Pseudomonas aeruginosa PAO1 PCM 499, Klebsiella pneumoniae PCM 1, Salmonella sv. Typhimurium TT622, and Yersinia enterocolitica PCM 2081. All strains were cultured in LB (lysogenic broth) medium.
10 mL of LB medium was inoculated with material from a single colony and cultured at 30°C overnight with shaking. Thereafter, the optical density of the overnight cultures (at 600 nm) was adjusted to 0.05 by dilution in a fresh portion of LB medium. The test compounds were dissolved in water. Serial dilutions of compounds were prepared in LB medium ranging from 5 to 50 µg/mL (final concentrations). The experiment was performed by adding 100 µL of each of the prepared dilutions to 100 µL of the diluted overnight bacterial culture in the wells of a 96-well titration plate. […] Optical density measurements were performed using TECAN Sunrise plate reader. Data were obtained from three independent experiments.

[8] = system: Salmonella sv. Typhimurium TT622; assay: Determination of the minimal inhibitory concentration (MIC); type: cell-based; settings: LB medium, 24 h at 30°C, OD 600 nm not greater than 0.05
Protocol: as §1, §2

[9] = system: Yersinia enterocolitica PCM 2081; assay: Lipopeptide effect on the bacterial growth dynamics; type: cell-based; settings: OD 600 nm every 60 min for 6 h after 2 h pre-incubation
Protocol: as §1
(§4) The effect of different concentrations of the test compounds on the bacterial growth was tested on 3 Gram-negative bacterial strains: Klebsiella pneumoniae PCM 1, Pseudomonas aeruginosa PAO1 PCM 499, and Yersinia enterocolitica PCM 2081 and one Gram-positive strain: Staphylococcus aureus ATCC 29213. The experiment was carried out in a similar way to the MIC determination, but in this case the diluted overnight cultures were pre-incubated for 2 h before adding diluted lipopeptide preparations. The bacterial growth was then monitored by measuring the optical density of the culture at 600 nm every 60 min for 6 h. Data were obtained from three independent experiments. The measurement results are shown as graphs in Figs. 1-3.

[10] = system: Klebsiella pneumoniae PCM 1; assay: as above; type: cell-based; settings: OD 600 nm every 60 min for 6 h after 2 h pre-incubation
Protocol: as §1, §4

[11] = system: Pseudomonas aeruginosa PAO1 PCM 499; assay: as above; type: cell-based; settings: OD 600 nm every 60 min for 6 h after 2 h pre-incubation
Protocol: as §1, §4

CCCCCCCCCCCC(=O)N[C@H](Cc1ccccc1)C(=O)N[C@@H](CCN)C(=O)N[C@@H](CCN)C(=O)N[C@@H](CC(C)C)C(N)=O [C12-fXXL, CH3(CH2)10C(O)-D-Phe-Dab-Dab-Leu-NH2] (Lauroyl-[dF][Dab][Dab]L-NH2)
MIC [1]: 50 µg/mL (≈ 75.8 µM) | MIC [2]: 30 µg/mL (≈ 45.5 µM) | MIC [3]: 20 µg/mL (≈ 30.3 µM) | MIC [4]: 20 µg/mL (≈ 30.3 µM) | HC50 (Horse red blood cells): 30 µg/mL < HC50< 40 µg/mL | HC50 (Sheep red blood cells): 30 µg/mL < HC50< 40 µg/mL | MIC [5]: 5 µg/mL (≈ 7.58 µM) | MIC [6]: 5 µg/mL (≈ 7.58 µM) | MIC [7]: 20 µg/mL (≈ 30.3 µM) | MIC [8]: n.d. (n.d. = not determined, i.e., the MIC value was greater than 50 µg/mL) | effect on the bacterial growth dynamics [9]: slowed down the bacterial growth dynamics at much lower concentrations than that of the C16-fXXL lipopeptide | effect on the bacterial growth dynamics [10]: slowed down the bacterial growth dynamics at much lower concentrations than that of the C16-fXXL lipopeptide | effect on the bacterial growth dynamics [11]: slowed down the bacterial growth dynamics at much lower concentrations than that of the C16-fXXL lipopeptide

CCCCCCCCCCCCCC(=O)N[C@H](Cc1ccccc1)C(=O)N[C@@H](CCN)C(=O)N[C@@H](CCN)C(=O)N[C@@H](CC(C)C)C(N)=O [C14-fXXL, CH3(CH2)12C(O)-D-Phe-Dab-Dab-Leu-NH2] (Myristoyl-[dF][Dab][Dab]L-NH2)
MIC [1]: n.d. (n.d. = not determined, i.e., the MIC value was greater than 50 µg/mL) | MIC [2]: 30 µg/mL (≈ 43.6 µM) | MIC [3]: 20 µg/mL (≈ 29.1 µM) | MIC [4]: 20 µg/mL (≈ 29.1 µM) | HC50 (Horse red blood cells): 30 µg/mL < HC50< 40 µg/mL | HC50 (Sheep red blood cells): 30 µg/mL < HC50< 40 µg/mL | MIC [5]: 5 µg/mL (≈ 7.27 µM) | MIC [6]: 5 µg/mL (≈ 7.27 µM) | MIC [7]: 10 µg/mL (≈ 14.5 µM) | MIC [8]: n.d. (n.d. = not determined, i.e., the MIC value was greater than 50 µg/mL) | effect on the bacterial growth dynamics [9]: slowed down the bacterial growth dynamics at much lower concentrations than that of the C16-fXXL lipopeptide | effect on the bacterial growth dynamics [10]: slowed down the bacterial growth dynamics at much lower concentrations than that of the C16-fXXL lipopeptide | effect on the bacterial growth dynamics [11]: equally strong effect of slowing down the Gram-negative bacterial growth dynamics; also recorded: slowed down the bacterial growth dynamics at much lower concentrations than that of the C16-fXXL lipopeptide

CCCCCCCCCCCCCCCC(=O)N[C@H](Cc1ccccc1)C(=O)N[C@@H](CCN)C(=O)N[C@@H](CCN)C(=O)N[C@@H](CC(C)C)C(N)=O [C16-fXXL, CH3(CH2)14C(O)-D-Phe-Dab-Dab-Leu-NH2, reference compound] (Palmitoyl-[dF][Dab][Dab]L-NH2)
MIC [1]: no activity | MIC [2]: n.d. (n.d. = not determined, i.e., the MIC value was greater than 50 µg/mL) | MIC [3]: n.d. (n.d. = not determined, i.e., the MIC value was greater than 50 µg/mL) | MIC [4]: n.d. (n.d. = not determined, i.e., the MIC value was greater than 50 µg/mL) | HC50 (Horse red blood cells): 30 µg/mL < HC50< 40 µg/mL | HC50 (Sheep red blood cells): 30 µg/mL < HC50< 40 µg/mL | MIC [5]: 5 µg/mL (≈ 6.98 µM) | MIC [6]: 5 µg/mL (≈ 6.98 µM) | MIC [7]: 30 µg/mL (≈ 41.9 µM) | MIC [8]: n.d. (n.d. = not determined, i.e., the MIC value was greater than 50 µg/mL)
